In patent US20240294488A1, “ISOTOPOLOGES, SALTS, CRYSTALLINE FORMS, STEREOISOMERS, OF METHYLONE AND ETHYLONE AND METHODS OF USE THEREOF” (Terran Biosciences Inc., priority 2021, published 2024):
Counter-ions that a name gives are not always drawn.

How the values were obtained:
[1] = Solubility screen of methylone hydrochloride in solvents; assay type: physicochemical; conditions: thermodynamic from solid, visual
Protocol: The experiments were carried out by adding the test solvent in aliquots to weighed portions of solid. Whether dissolution had occurred was judged by visual inspection after addition of each solvent aliquot. Solubility numbers recorded in Table 4 were calculated by dividing the weight of the sample by the total amount of solvent used to dissolve the sample. The actual solubilities may be greater than the numbers calculated because of the use of solvent aliquots that were too large or because of slow dissolution rates. All solubility measurements were carried out at room temperature unless noted otherwise.

[2] = Dynamic vapor sorption (DVS); assay type: physicochemical
Protocol: The sample for moisture analysis was allowed to dry at 25° C. for up to 4 hours under a stream of dry nitrogen. The relative humidity is then increased stepwise from 10 to 90% relative humidity (adsorption scan) allowing the sample to equilibrate for a maximum of four hours before weighing and moving on to the next step. The desorption scan is measured from 85 to 0% relative humidity with the same equilibration time. The sample is then dried under a stream of dry nitrogen at 80° C. for 2 hours or until no weight loss is observed.
DVS analysis was carried out using a TA Instruments Q5000 Dynamic Vapor Sorption analyzer. The instrument was calibrated with standard weights and a sodium bromide standard for humidity. Approximately 10-25 mg of sample was loaded into a metal-coated quartz pan for analysis. The sample was analyzed at 25° C. with a maximum equilibration time of one hour in 10% relative humidity (RH) steps from 5 to 95% RH (adsorption cycle) and from 95 to 5% RH (desorption cycle). The movement from one step to the next occurred either after satisfying the equilibrium criterion of 0.01% weight change or, if the equilibrium criterion was not met, after one hour. The percent weight change values were calculated.

Sprague-Dawley rats = experiment: Rat elevated zero maze model of anxiety; assay type: in vivo; conditions: for time spent in the open arms / frequency of stretched attend postures (SAPs): 30 min pretest, 5-min test; for time spent in the open arms: vs vehicle; for anxiogenic effect: across doses tested (2.5-30 mg/kg ip); for anxiolytic effect: at a sufficient dose
Description: The rat zero-maze model is a refined alternative to the plus-maze, the most widely used animal model of anxiety, and consists of an elevated annular platform, divided equally into four quadrants. Two opposite quadrants are enclosed by Perspex walls on both the inner and the outer edges of the platform, while the remaining two opposite quadrants are open being enclosed only by a Perspex “lip”. Animals will show a preference for the closed areas, and avoidance of the open sections is assumed to stem from a rodent's natural aversion to open, exposed spaces. The primary index of anxiety, which reflect changes in open arm preference, is the percentage of time spent on the open areas. A reduction in the amount of activity on the open areas is considered to reflect an increase in anxiety. Other, ethologically-based behaviours are also assessed as indices of anxiety. One of the most important is stretched attend postures (SAP) from closed to open quadrants. […] Shepherd, J K; et al., (1994) Behavioural and pharmacological validation of the elevated “zero-maze” as an animal model of anxiety. Psychopharmacol., 116:56-64.
Male Sprague-Dawley 200-250 g (Envigo UK) rats were used. Animals were group-housed (5 per cage; cage size: 40×40×20 cm) in a temperature-controlled environment (22±2° C.), under a 12 h light-dark cycle (lights on: 08:00 hours) for one week prior to testing. Food and water were freely available. Number of animals per group=5. Animals were moved into the experimental room 16-24 hours before testing.
The elevated 0-maze comprises a black Perspex annular platform (105 cm diameter, 10 cm width) elevated to 65 cm above ground level, divided equally into four quadrants. Two opposite quadrants are enclosed by clear red Perspex walls (27 cm high) on both the inner and outer edges of the platform, while the remaining two opposite quadrants are surrounded only by a Perspex “lip” (1 cm high) which serves as a tactile guide to animals on these open areas.
Subjects were weighed and tail marked before being injected. After a specified pretreatment time, subjects were placed in a closed quadrant and a 5-min test period were recorded on videotape for subsequent analysis. The maze were cleaned with 5% methanol/water solution and dried thoroughly between test sessions. Behavioural measures comprise percentage time spent on the open areas (% TO) and frequency of stretched attend postures (SAP) from closed to open quadrants. Since the control groups were all treated identically with the same vehicle these were combined to increase power. The Chlordiazepoxide groups were also treated identically with the same dose so these were also combined to increase power. Animals are scored as being in the open area when all four paws were in an open quadrant and in the closed area only when all four paws have passed over the open-closed divide. All testing were carried out between 9.00 and 16.00 hours.
Drug Versus Vehicle Treatments For each study, a 1-way ANOVA was conducted across vehicle, CDP, and drug treatment groups. Each group was compared to the vehicle group and a p-value for treatment determined by Fishers Least Significant Difference (LSD) test. This analysis was performed in GraphPad Prism (Version 9).Formulations: […]
Intraperitoneal (IP): Racemic methylone HCl was formulated in Vehicle 1 (Saline) for injection to concentrations of 1, 3 and 6 mg/mL to provide doses of 5, 15 and 30 mg/kg when administered ip in 5 mL/kg dosing volumes.
Intraperitoneal (IP): S-methylone HCl was formulated in Vehicle 1 (Saline) for injection to concentrations of 0.5, 1, 1.5, 3 and 6 mg/mL to provide doses of 2.5, 5, 7.5, 15 and 30 mg/kg when administered ip in 5 mL/kg dosing volumes.
Intraperitoneal (IP): R-methylone HCl was formulated in Vehicle 1 (Saline) for injection to concentrations of 1, 3 and 6 mg/mL to provide doses of 5, 15 and 30 mg/kg when administered ip in 5 mL/kg dosing volumes. […]

[3] = 30 mg/kg ip vs chlordiazepoxide 6 mg/kg ip

SMILES: CNC(C)C(=O)c1ccc2c(c1)OCO2 (racemic) [(rac)-Methylone Hydrochloride, 3,4-methylenedioxy-N-methylcathinone hydrochloride]
- solubility ([1]; acetonitrile, organic solvent or mixture, ACN, room temperature): < 1000 µg/mL
- solubility ([1]; chloroform, organic solvent or mixture, CHCl3, room temperature): < 1000 µg/mL
- solubility ([1]; ethanol, organic solvent or mixture, EtOH, room temperature): 8000 µg/mL
- solubility ([1]; ethyl acetate (wet), organic solvent or mixture, EtOAc (wet), room temperature): 9000 µg/mL
- solubility ([1]; methanol, organic solvent or mixture, MeOH, room temperature): 48000 µg/mL
- solubility ([1]; methanol/chloroform 50/50, organic solvent or mixture, MeOH/CHCl3 50/50, room temperature): 45000 µg/mL
- solubility ([1]; organic solvent or mixture, Acetone, room temperature): < 1000 µg/mL
- solubility ([1]; organic solvent or mixture, DMF, room temperature): 5000 µg/mL
- solubility ([1]; organic solvent or mixture, THF, room temperature): < 1000 µg/mL
- solubility ([1]; water, H2O, room temperature): 47000 µg/mL
- relative humidity above which water uptake occurs ([2]; DVS, FIG. 26): above 75 % RH
- physical stability after moisture sorption-desorption analysis ([2]; between 5% RH and 95% RH): physically stable
- water gain ([2]; between 5% RH and 95% RH): 0.33%
- water loss ([2]; between 95% RH and 5% RH): 0.15%
- appearance after humidity exposure ([2]; exposed to 75% RH for 2 hours): became tacky and stuck to the vial
- time spent in the open arms (Sprague-Dawley rats; 5 mg/kg ip): a decrease in time spent in the open arms vs placebo
- decrease in SAPs compared with chlordiazepoxide (Sprague-Dawley rats; 15 mg/kg ip vs chlordiazepoxide 6 mg/kg ip): not as effective as chlordiazepoxide
- frequency of stretched attend postures (SAPs) (Sprague-Dawley rats; 15 mg/kg ip): dose dependent decrease in SAPs
- time spent in the open arms (Sprague-Dawley rats; 15 mg/kg ip): no difference from placebo
- frequency of stretched attend postures (SAPs) (Sprague-Dawley rats; 30 mg/kg ip): a decrease in SAPs
- time spent in the open arms (Sprague-Dawley rats; 30 mg/kg ip): a significant decrease in time spent in the open arms
- anxiogenic effect (Sprague-Dawley rats): show anxiogenic effects at lower doses
- anxiolytic effect (Sprague-Dawley rats): effective anxiolytics

SMILES: CN[C@H](C)C(=O)c1ccc2c(c1)OCO2 [(R)-Methylone Hydrochloride, (R)-1-(Benzo[d][1,3]dioxol-5-yl)-2-(methylamino)propan-1-one Hydrochloride]
- decrease in SAPs compared with chlordiazepoxide (Sprague-Dawley rats; [3]): to the same level as chlordiazepoxide
- time spent in the open arms compared with chlordiazepoxide (Sprague-Dawley rats; [3]): as effective as chlordiazepoxide
- frequency of stretched attend postures (SAPs) (Sprague-Dawley rats; 30 mg/kg ip): significantly decreasing SAPs
- frequency of SAPs, dose dependence (Sprague-Dawley rats; 5, 15 and 30 mg/kg ip): dose dependent decrease in SAPs
- time spent in the open arms, dose dependence (Sprague-Dawley rats; 5, 15 and 30 mg/kg ip): dose dependent increase in time spent in the open arms
- anxiogenic effect (Sprague-Dawley rats): did not show any anxiogenic effect at any dose
- anxiolytic effect (Sprague-Dawley rats): effective anxiolytics

SMILES: CN[C@@H](C)C(=O)c1ccc2c(c1)OCO2 [(S)-Methylone Hydrochloride, (S)-1-(Benzo[d][1,3]dioxol-5-yl)-2-(methylamino)propan-1-one Hydrochloride]
- frequency of stretched attend postures (SAPs) (Sprague-Dawley rats; 2.5 mg/kg ip): dose dependent increase in SAPs
- frequency of stretched attend postures (SAPs) (Sprague-Dawley rats; 5 mg/kg ip): dose dependent increase in SAPs
- time spent in the open arms (Sprague-Dawley rats; 5 mg/kg ip): the time spent in the open arms decreased as the dose increased
- frequency of stretched attend postures (SAPs) (Sprague-Dawley rats; 7.5 mg/kg ip): dose dependent decrease in SAPS
- time spent in the open arms (Sprague-Dawley rats; 7.5 mg/kg ip): the time spent in the open arms decreased as the dose increased
- frequency of stretched attend postures (SAPs) (Sprague-Dawley rats; 15 mg/kg ip): dose dependent decrease in SAPS
- time spent in the open arms (Sprague-Dawley rats; 15 mg/kg ip): the time spent in the open arms decreased as the dose increased
- decrease in SAPs compared with chlordiazepoxide (Sprague-Dawley rats; [3]): even more effective than chlordiazepoxide
- time spent in the open arms compared with chlordiazepoxide (Sprague-Dawley rats; [3]): as effective as chlordiazepoxide
- frequency of stretched attend postures (SAPs) (Sprague-Dawley rats; 30 mg/kg ip): dose dependent decrease in SAPS
- time spent in the open arms (Sprague-Dawley rats; 30 mg/kg ip): the time in the open arms increased
- anxiogenic effect (Sprague-Dawley rats): show anxiogenic effects at lower doses
- anxiolytic effect (Sprague-Dawley rats): effective anxiolytics
